Reference: patent US10011562B2, “Long-chain dimethylaniline derivative compounds, their preparation methods, self-assembled textures, and uses thereof” (WEST CHINA HOSPITAL, SICHUAN UNIVERSITY, priority 2014, dated 2018)

How the values were obtained:
Type in all cases: in vivo
[1] = tested on: sciatic nerve of rats; experiment: First local anesthetic experiment of rats: blocking of sciatic nerve, mechanical withdrawal threshold (VFH, von Frey filaments)
Experimental: (§1) Selected above micelle, positive control lidocaine, and negative control normal saline were respectively administrated to 28 groups of test rats fully adapted to experiment environment, with five rats for each group. The administration dosage is: the concentration of lidocaine group being 2% aqueous solution (84 mmol/L), and the concentration of tested drug being 5 mmol/L. The injection volume of each rat receiving drugs or the control was 0.2 ml, and the drug or the control was injected to close to sciatic nerve of rats by guidance of nerve locator.
(§2) The tested rats were placed on bench board and allowed to inhale 5% isoflurane. After body-righting reflex abolition, rats are allowed to continue inhaling 1.5% isoflurane, to keep anesthesia. Keeping left-lateral position, their corresponding injection area sacrococygeal region was shaved, then routine sterilization and draping were performed. Two osseous anatomic landmarks greater trochanter of femur and tuber is chiadicum were laid hands, and the middle point of this line was the needle insertion position. If skin was taut, 1 ml injector was inserted along perpendicular of skin. When needlepoint reached hucklebone, the insertion was finished. […] Needle was lifted, and is oflurane was shut off. Animals were placed in observation cage until they naturally awakened.
(§3) Rats were placed in transparent observation cages with a bottom of smooth metal sieve plate, and the corrected von frey filament was used to stimulate the foot lateral skin of rats (innervated region of sciatic nerve) from down to up. […] For each stimulation, slightly bent of filament was used as a standard, or rats moved aside this side of limbs. Otherwise, once the stimulation time reached 3 s, operator stopped stimulating. Three tests were carried out for each time point, and the interval between two tests was 5 min, to avoid sensibilization.
(§4) If the mechanical withdrawal threshold value was more than 60 g, the nerve blocking was considered as effective.

[2] = tested on: sciatic nerve of rats; experiment: First local anesthetic experiment of rats: blocking of sciatic nerve, motor function by hindlimb postural extensor thrust (PET)
Experimental: as §1, §2
(§5) The hindlimb postural extensor thrust (PET) was used for evaluation. Rats were lifted vertically and their hindlimbs of injection side stepped on the top of electronic balance. At this time, the postural extensor thrust was shown as the value of balance. When limbs were completely paralytic, the digital reading was the weight of limbs, about 20 g. If the test value was more than half of the difference between the baseline and the limbs weight, the motor function was taken as recovery; If less than or equal to half of the difference, the motor function was taken as deprivation.
(§6) The interval between completion of injection and the time point that the motor function was firstly deprivated was the time of effective motor blocking; the interval between completion of injection and the time point that the motor function was firstly recovered was the time of ineffective motor blocking; their difference was the hold time of motor blocking.

[3] = tested on: sciatic nerve of rats; experiment: Third local anesthetic experiment of rats: hydrogels embedded near the sciatic nerve, mechanical withdrawal threshold (VFH)
Experimental: as §3, §4
(§7) 25 mmol/L transparent uniform hydrogels of products obtained in Examples 7-10 and 13-32 were prepared under sterile conditions, as the method of Example 45, and kept for use.
(§8) Above hydrogels, positive control lidocaine, and negative control normal saline were respectively administrated to 35 groups of test rats fully adapted to experiment environment, with five rats for each group. The administration dosage is: the concentration of lidocaine group being 2% aqueous solution (84 mmol/L). The injection volume of each rat receiving drugs or the control was […], and the control was injected to near the sciatic nerve of rats by guidance of nerve locator; by surgery, the gels were embedded near the sciatic nerve of experimental rats after general anesthesia using sevoflurane. Specific procedures and the evaluation criterion for local anesthetic effect were same as mentioned in Example 60.

[4] = tested on: sciatic nerve of rats; experiment: Third local anesthetic experiment of rats: hydrogels embedded near the sciatic nerve, motor function (PET)
Description: as §5, §6, §7, §8

[5] = rats, 0.2 ml injected close to sciatic nerve, tested drug 5 mmol/L solution (micelle), lidocaine 2% (84 mmol/L), threshold above 60 g
[6] = rats, 0.2 ml injected close to sciatic nerve, tested drug 5 mmol/L solution (micelle), lidocaine 2% aqueous solution (84 mmol/L)
[7] = rats, 0.2 ml injected close to sciatic nerve, tested drug 5 mmol/L solution (micelle), lidocaine 2% (84 mmol/L)
[8] = rats, 25 mmol/L hydrogel, 0.2 g embedded by surgery near sciatic nerve, lidocaine 2% (84 mmol/L) injected

## CCCC(=O)OC[N+](CC)(CC)CC(=O)Nc1c(C)cccc1C [Example4product]
[1]; rat, in vivo
  Effective local anesthetic time: 20 min
  The hold time of sensation blocking: 8 h
[2]; rat, in vivo
  The hold time of motor blocking: 8 h

## CC[N+](CC)(COC(=O)C(C)(C)C)CC(=O)Nc1c(C)cccc1C [Example5product]
[1]; rat, in vivo
  Effective local anesthetic time: 18 min
  The hold time of sensation blocking: 8 h
[2]; rat, in vivo
  The hold time of motor blocking: 8 h

## CC[N+](CC)(CCOC(C)=O)CC(=O)Nc1c(C)cccc1C [Example6product]
[1]; [5]
  The hold time of sensation blocking: 72 h
[1]; [6]
  Effective local anesthetic time: 20 min
[2]; [7]
  The hold time of motor blocking: 72 h

## CCCCCCCCCCCC(=O)OCC[N+](CC)(CC)CC(=O)Nc1c(C)cccc1C [Example7product]
[1]; [5]
  The hold time of sensation blocking: 75 h
[1]; [6]
  Effective local anesthetic time: 20 min
[2]; [7]
  The hold time of motor blocking: 70 h
[3]; [8]
  Effective local anesthetic time: 60 min
  The hold time of sensation blocking: 90 h
[4]; [8]
  The hold time of motor blocking: 80 h

## CCCCCCCCCCCCCCCC(=O)OCC[N+](CC)(CC)CC(=O)Nc1c(C)cccc1C [Example8product]
[1]; [5]
  The hold time of sensation blocking: 73 h
[1]; [6]
  Effective local anesthetic time: 18 min
[2]; [7]
  The hold time of motor blocking: 70 h
[3]; [8]
  Effective local anesthetic time: 70 min
  The hold time of sensation blocking: 92 h
[4]; [8]
  The hold time of motor blocking: 82 h

## CCCCCCCCCCCC(=O)OCC[N+](CC)(CC)CC(=O)Nc1c(C)cccc1C [Example9product]
[1]; rat, in vivo
  Effective local anesthetic time: 20 min
  The hold time of sensation blocking: 80 h
[2]; rat, in vivo
  The hold time of motor blocking: 80 h
[3]; rat, in vivo
  Effective local anesthetic time: 75 min
  The hold time of sensation blocking: 98 h
[4]; rat, in vivo
  The hold time of motor blocking: 80 h

## CCCCCCCCCCCCCCCC(=O)OCC[N+](CC)(CC)CC(=O)Nc1c(C)cccc1C [Example10product]
[1]; rat, in vivo
  Effective local anesthetic time: 20 min
  The hold time of sensation blocking: 81 h
[2]; rat, in vivo
  The hold time of motor blocking: 81 h
[3]; rat, in vivo
  Effective local anesthetic time: 85 min
  The hold time of sensation blocking: 80 h
[4]; rat, in vivo
  The hold time of motor blocking: 72 h

## CCOC(=O)OCC[N+](CC)(CC)CC(=O)Nc1c(C)cccc1C [Example11product]
[1]; rat, in vivo
  Effective local anesthetic time: 20 min
  The hold time of sensation blocking: 82 h
[2]; rat, in vivo
  The hold time of motor blocking: 82 h

## CCCCOC(=O)OCC[N+](CC)(CC)CC(=O)Nc1c(C)cccc1C [Example12product]
[1]; rat, in vivo
  Effective local anesthetic time: 20 min
  The hold time of sensation blocking: 80 h
[2]; rat, in vivo
  The hold time of motor blocking: 80 h

## CCCCCCOC(=O)OCC[N+](CC)(CC)CC(=O)Nc1c(C)cccc1C [Example13product]
[1]; rat, in vivo
  Effective local anesthetic time: 19 min
  The hold time of sensation blocking: 79 h
[2]; rat, in vivo
  The hold time of motor blocking: 79 h
[3]; rat, in vivo
  Effective local anesthetic time: 45 min
  The hold time of sensation blocking: 80 h
[4]; rat, in vivo
  The hold time of motor blocking: 76 h

## CCCCCCCOC(=O)OCC[N+](CC)(CC)CC(=O)Nc1c(C)cccc1C [Example14product]
[1]; rat, in vivo
  Effective local anesthetic time: 15 min
  The hold time of sensation blocking: 82 h
[2]; rat, in vivo
  The hold time of motor blocking: 70 h
[3]; rat, in vivo
  Effective local anesthetic time: 45 min
  The hold time of sensation blocking: 81 h
[4]; rat, in vivo
  The hold time of motor blocking: 76 h

## CCCCCCCOC(=O)OCC[N+](CC)(CC)CC(=O)Nc1c(C)cccc1C [Example15product]
[1]; rat, in vivo
  Effective local anesthetic time: 17 min
  The hold time of sensation blocking: 81 h
[2]; rat, in vivo
  The hold time of motor blocking: 66 h
[3]; rat, in vivo
  Effective local anesthetic time: 53 min
  The hold time of sensation blocking: 81 h
[4]; rat, in vivo
  The hold time of motor blocking: 79 h

## CCCCCCCCOC(=O)OCC[N+](CC)(CC)CC(=O)Nc1c(C)cccc1C [Example16product]
[1]; rat, in vivo
  Effective local anesthetic time: 18 min
  The hold time of sensation blocking: 85 h
[2]; rat, in vivo
  The hold time of motor blocking: 62 h
[3]; rat, in vivo
  Effective local anesthetic time: 56 min
  The hold time of sensation blocking: 82 h
[4]; rat, in vivo
  The hold time of motor blocking: 82 h

## CCCCCCCCOC(=O)OCC[N+](CC)(CC)CC(=O)Nc1c(C)cccc1C [Example17product]
[1]; rat, in vivo
  Effective local anesthetic time: 16 min
  The hold time of sensation blocking: 82 h
[2]; rat, in vivo
  The hold time of motor blocking: 62 h
[3]; rat, in vivo
  Effective local anesthetic time: 63 min
  The hold time of sensation blocking: 85 h
[4]; rat, in vivo
  The hold time of motor blocking: 82 h

## CCCCCCCCCOC(=O)OCC[N+](CC)(CC)CC(=O)Nc1c(C)cccc1C [Example18product]
[1]; rat, in vivo
  Effective local anesthetic time: 16 min
  The hold time of sensation blocking: 88 h
[2]; rat, in vivo
  The hold time of motor blocking: 60 h
[3]; rat, in vivo
  Effective local anesthetic time: 60 min
  The hold time of sensation blocking: 83 h
[4]; rat, in vivo
  The hold time of motor blocking: 79 h

## CCCCCCCCCOC(=O)OCC[N+](CC)(CC)CC(=O)Nc1c(C)cccc1C [Example19product]
[1]; rat, in vivo
  Effective local anesthetic time: 16 min
  The hold time of sensation blocking: 82 h
[2]; rat, in vivo
  The hold time of motor blocking: 56 h
[3]; rat, in vivo
  Effective local anesthetic time: 65 min
  The hold time of sensation blocking: 90 h
[4]; rat, in vivo
  The hold time of motor blocking: 88 h

## CCCCCCCCCOC(=O)OCC[N+](CC)(CC)CC(=O)Nc1c(C)cccc1C [Example21product]
[1]; [5]
  The hold time of sensation blocking: 82 h
[1]; [6]
  Effective local anesthetic time: 18 min
[2]; [7]
  The hold time of motor blocking: 60 h
[3]; [8]
  Effective local anesthetic time: 75 min
  The hold time of sensation blocking: 88 h
[4]; [8]
  The hold time of motor blocking: 79 h

## CCCCCCCCCOC(=O)OCC[N+](CC)(CC)CC(=O)Nc1c(C)cccc1C [Example22product]
[1]; [5]
  The hold time of sensation blocking: 81 h
[1]; [6]
  Effective local anesthetic time: 18 min
[2]; [7]
  The hold time of motor blocking: 61 h
[3]; [8]
  Effective local anesthetic time: 78 min
  The hold time of sensation blocking: 95 h
[4]; [8]
  The hold time of motor blocking: 87 h

## CCCCCCCCCCOC(=O)OCC[N+](CC)(CC)CC(=O)Nc1c(C)cccc1C [Example23product]
[1]; rat, in vivo
  Effective local anesthetic time: 20 min
  The hold time of sensation blocking: 82 h
[2]; rat, in vivo
  The hold time of motor blocking: 62 h
[3]; rat, in vivo
  Effective local anesthetic time: 80 min
  The hold time of sensation blocking: 92 h
[4]; rat, in vivo
  The hold time of motor blocking: 76 h

## CCCCCCCCCCOC(=O)OCC[N+](CC)(CC)CC(=O)Nc1c(C)cccc1C [Example24product]
[1]; rat, in vivo
  Effective local anesthetic time: 20 min
  The hold time of sensation blocking: 82 h
[2]; rat, in vivo
  The hold time of motor blocking: 75 h
[3]; rat, in vivo
  Effective local anesthetic time: 78 min
  The hold time of sensation blocking: 87 h
[4]; rat, in vivo
  The hold time of motor blocking: 79 h

## CCCCCCCCCCCOC(=O)OCC[N+](CC)(CC)CC(=O)Nc1c(C)cccc1C [Example25product]
[1]; rat, in vivo
  Effective local anesthetic time: 20 min
  The hold time of sensation blocking: 81 h
[2]; rat, in vivo
  The hold time of motor blocking: 80 h
[3]; rat, in vivo
  Effective local anesthetic time: 82 min
  The hold time of sensation blocking: 83 h
[4]; rat, in vivo
  The hold time of motor blocking: 79 h

## CCCCCCCCCCCCOC(=O)OCC[N+](CC)(CC)CC(=O)Nc1c(C)cccc1C [Example26product]
[1]; rat, in vivo
  Effective local anesthetic time: 20 min
  The hold time of sensation blocking: 80 h
[2]; rat, in vivo
  The hold time of motor blocking: 80 h
[3]; rat, in vivo
  Effective local anesthetic time: 88 min
  The hold time of sensation blocking: 81 h
[4]; rat, in vivo
  The hold time of motor blocking: 77 h

## CCCCCCCCCCCCOC(=O)OCC[N+](CC)(CC)CC(=O)Nc1c(C)cccc1C [Example27product]
[1]; rat, in vivo
  Effective local anesthetic time: 20 min
  The hold time of sensation blocking: 78 h
[2]; rat, in vivo
  The hold time of motor blocking: 80 h
[3]; rat, in vivo
  Effective local anesthetic time: 90 min
  The hold time of sensation blocking: 83 h
[4]; rat, in vivo
  The hold time of motor blocking: 76 h
